What was measured:
UCH-L3 = target: T1, UCH-L3 (Homo sapiens, UniProt P15374); assay: deubiquitinating enzyme assay with UCH-L3; assay type: biochemical; conditions: in vitro
T1 sequence (P15374 1-230): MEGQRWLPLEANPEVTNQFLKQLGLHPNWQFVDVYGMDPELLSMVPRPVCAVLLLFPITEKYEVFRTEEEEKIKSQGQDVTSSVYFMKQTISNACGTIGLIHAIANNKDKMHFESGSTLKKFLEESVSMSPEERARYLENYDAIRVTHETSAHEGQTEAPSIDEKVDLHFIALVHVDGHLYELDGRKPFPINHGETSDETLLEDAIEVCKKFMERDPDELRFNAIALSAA
Experimental: (§1) The in vitro enzymatic assays were performed using purified proteins from Sf9 cells as described previously (Cohn et al.). The assays using ubiquitin-AMC (Ub-7-amido-4-methylcoumarin; Boston Biochem) as substrate was carried out in a reaction buffer containing 20 mM HEPES-KOH (pH 7.8), 20 mM NaCl, 0.1 mg/ml ovalbumin, 0.5 mM EDTA and 10 mM dithiothreitol. The fluorescence was measured by FluoStar Galaxy Fluorometer (BMG Labtech). For the Ub-vinylsulfone (VS) assay, the proteins were incubated with Ub-VS at 0.5 μM final concentration for 1 h at 30° C., followed by the immunoblotting analysis.
To examine the specificity of C527 in USP1/UAF1 inhibition, its ability to inhibit other DUB enzymes in vitro was examined. […] Moreover, the active complex of USP12 contains an additional WD40 subunit (WDR20). […] UCH-L1 and UCH-L3 are members of a different subclass of deubiquitinating enzymes, referred to as the ubiquitin-carboxy terminal hydrolases (Mermerian A H, Case A, Stein R L, Cuny G D. Structure-activity relationship, kinetic mechanism, and selectivity for a new class of ubiquitin C-terminal hydrolase-L1 (UCH-L1) inhibitors. Bioorg Med Chem Lett. 2007; 17:3729-3732). […] Taken together, C527 is a pan-deubiquitinating enzyme inhibitor in vitro, though it has some specificity for the USP subfamily of DUBs, compared to the UCH subfamily.

USP5 = target: T2, USP5 (Homo sapiens, UniProt P45974); assay: ubiquitin-AMC assay with USP5; assay type: biochemical
T2 construct: purchased Boston Biochem
T2 sequence (P45974 1-858): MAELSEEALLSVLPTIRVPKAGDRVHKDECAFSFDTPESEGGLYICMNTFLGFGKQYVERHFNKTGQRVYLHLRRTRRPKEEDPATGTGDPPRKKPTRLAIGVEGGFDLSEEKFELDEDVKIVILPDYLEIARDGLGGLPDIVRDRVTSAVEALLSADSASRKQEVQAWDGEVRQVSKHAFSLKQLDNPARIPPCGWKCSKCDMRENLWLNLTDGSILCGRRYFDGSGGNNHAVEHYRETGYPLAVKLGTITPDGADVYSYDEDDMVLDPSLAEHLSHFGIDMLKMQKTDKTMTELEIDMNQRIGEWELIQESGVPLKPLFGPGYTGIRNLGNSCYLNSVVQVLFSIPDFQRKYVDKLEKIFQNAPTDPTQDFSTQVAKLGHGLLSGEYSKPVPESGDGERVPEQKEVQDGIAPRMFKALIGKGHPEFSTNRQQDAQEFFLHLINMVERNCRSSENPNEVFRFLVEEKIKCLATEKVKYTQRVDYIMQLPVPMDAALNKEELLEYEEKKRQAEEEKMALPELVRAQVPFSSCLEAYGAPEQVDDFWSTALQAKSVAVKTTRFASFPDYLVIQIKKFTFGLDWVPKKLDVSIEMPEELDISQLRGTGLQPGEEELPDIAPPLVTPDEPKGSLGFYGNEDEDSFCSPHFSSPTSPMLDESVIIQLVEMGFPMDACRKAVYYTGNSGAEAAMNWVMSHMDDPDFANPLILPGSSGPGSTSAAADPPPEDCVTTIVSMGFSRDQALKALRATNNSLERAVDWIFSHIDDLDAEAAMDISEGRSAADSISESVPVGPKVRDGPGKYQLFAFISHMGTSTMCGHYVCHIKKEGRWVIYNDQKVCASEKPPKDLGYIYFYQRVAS
Experimental: FIG. 6 is a composite figure showing that C527 is a pan-deubiqutinating enzyme inhibitor […]. Ubiquitin-AMC assay was performed using purified (FIG. 6A) USP12/UAF1/WDR20 (FIG. 6B) USP5 and (FIG. 6C) UCH-L1. Enzymes were incubated with DMSO or C527 at indicated concentrations for 3 h, followed by the addition of Ub-AMC at 0.5 μM final concentration. The fluorescence at […] was measured to indicate the enzymatic activity. FIG. 6D is a summary showing the IC50 of C527 against the indicated enzymes.
as §1
To examine the specificity of C527 in USP1/UAF1 inhibition, its ability to inhibit other DUB enzymes in vitro was examined. […] Moreover, the active complex of USP12 contains an additional WD40 subunit (WDR20). […]

O=C1c2ccccc2C(=O)c2oc(-c3ccc(F)cc3)nc21 [Formula IV (527)]
inhibitory effect on UCH-L3 (UCH-L3): considerably less inhibitory effect
IC50 compared with USP1/UAF1 (USP5; FIG. 6D): slightly higher
DUB activity of the USP5 enzyme (USP5; in vitro, FIG. 6B): inhibited
